Legend:
[1] = test system: Human immunodeficiency virus 1; assay: Antiviral activity against wild-type HIV1 3B infected in human MT4 cells assessed as protection against virus-induced cytopathic effect after 4 days by MTT assay; type: functional, organism-based; details: Human immunodeficiency virus 1, 3B, MT4, 96 h
[2] = test system: Human immunodeficiency virus 2; assay: Antiviral activity against HIV2 ROD infected in human MT4 cells assessed as protection against virus-induced cytopathic effect after 4 days by MTT assay; type: functional, organism-based; details: Human immunodeficiency virus 2, ISOLATE ROD, MT4, 96 h
[3] = Selectivity index, ratio of CC50 for human MT4 cells to EC50 for wild-type HIV1 3B infected in human MT4 cells; type: toxicity, cell-based; details: MT4 cells infected with wild-type HIV1 3B, read-out: Ratio CC50/EC50
[4] = Cytotoxicity against human MT4 cells assessed as reduction in cell viability after 4 days by MTT assay; type: cell-based
[5] = Solubility of the compound in DMSO at 125 ug/ml; type: physicochemical
[6] = test system: Human immunodeficiency virus 1; assay: Antiviral activity against HIV1 RES056 harboring K103N/Y181C double mutant infected in human MT4 cells assessed as protection against virus-induced cytopathic effect after 4 days by MTT assay; type: functional, organism-based; details: Human immunodeficiency virus 1, RES056, MT4, 96 h
[7] = target: Human immunodeficiency virus type 1 reverse transcriptase (Human immunodeficiency virus 1, UniProt Q72547); assay: Inhibition of recombinant wild-type HIV1 GST-fused reverse transcriptase p66/p51 RNA-dependent DNA polymerase activity expressed in Escherichia coli assessed as reduction in biotin-dUTP incorporation using poly(rA)/oligo(dT)16 as template/primer after 40 mins by PicoGreen dye based spectrofluorometric analysis

Q: For CCOC(=O)c1cnc(N2CCN(Cc3cccc(C(=O)OC)c3)CC2)nc1Oc1c(C)cc(-c2ccc(C#N)cc2)cc1C, which EC50 [1] is on record?
A: > 125 µM

Q: And the EC50 [2]?
A: > 125 µM

Q: And the selectivity ratio [3]?
A: 1

Q: And the CC50 at 96 h [4]?
A: > 125 µM

Q: Which results are given for CCOC(=O)c1cnc(N2CCN(Cc3ccccc3C(F)(F)F)CC2)nc1Oc1c(C)cc(-c2ccc(C#N)cc2)cc1C?
A: EC50 [1]: > 125 µM; EC50 [2]: > 125 µM; selectivity ratio [3]: 1; CC50 at 96 h [4]: > 125 µM

Q: For CCOC(=O)c1cnc(N2CCN(Cc3ccccc3C#N)CC2)nc1Oc1c(C)cc(-c2ccc(C#N)cc2)cc1C, which EC50 [1] is on record?
A: > 125 µM

Q: And the EC50 [2]?
A: > 125 µM

Q: What about the selectivity ratio [3] of the same compound?
A: 1

Q: And the CC50 at 96 h [4]?
A: > 125 µM

Q: For CCOC(=O)c1cnc(N2CCN(Cc3ccccc3C(=O)OC)CC2)nc1Oc1c(C)cc(-c2ccc(C#N)cc2)cc1C, which EC50 [1] is on record?
A: > 125 µM

Q: And the EC50 [2]?
A: > 125 µM

Q: What about the selectivity ratio [3] of the same compound?
A: 1

Q: What about the CC50 at 96 h [4] of the same compound?
A: > 125 µM

Q: Which EC50 [1] does the source give for CCOC(=O)c1cnc(N2CCN(Cc3ccc(F)cc3)CC2)nc1Oc1c(C)cc(-c2ccc(C#N)cc2)cc1C here?
A: ≥ 120 µM

Q: And the EC50 [2]?
A: > 118 µM

Q: What about the solubility [5] of the same compound?
A: Insoluble

Q: What about the selectivity ratio [3] of the same compound?
A: 1

Q: What about the CC50 at 96 h [4] of the same compound?
A: > 118 µM

Q: And the EC50 [6]?
A: > 118 µM

Q: And the IC50 [7]?
A: > 120 µM

Q: With CCOC(=O)c1cnc(N2CCN(Cc3cc(C)cc(C)c3)CC2)nc1Oc1c(C)cc(-c2ccc(C#N)cc2)cc1C as the compound, how does the EC50 [1] read?
A: > 125 µM

Q: And the EC50 [2]?
A: > 125 µM

Q: What about the selectivity ratio [3] of the same compound?
A: 1

Q: What about the CC50 at 96 h [4] of the same compound?
A: > 125 µM

Q: With CCOC(=O)c1cnc(N2CCN(Cc3ccc(C(N)=O)cc3)CC2)nc1Oc1c(C)cc(-c2ccc(C#N)cc2)cc1C as the compound, how does the EC50 [1] read?
A: > 66.5 µM

Q: What about the EC50 [2] of the same compound?
A: > 66.5 µM

Q: What about the solubility [5] of the same compound?
A: Insoluble

Q: And the selectivity ratio [3]?
A: < 1

Q: What about the CC50 at 96 h [4] of the same compound?
A: 66.5 µM

Q: And the EC50 [6]?
A: > 66.5 µM

Q: And the IC50 [7]?
A: ≥ 113 µM

Q: With CCOC(=O)c1cnc(N2CCN(Cc3cccc(OC)c3)CC2)nc1Oc1c(C)cc(-c2ccc(C#N)cc2)cc1C as the compound, how does the EC50 [1] read?
A: > 125 µM

Q: And the EC50 [2]?
A: > 125 µM

Q: What about the selectivity ratio [3] of the same compound?
A: 1

Q: And the CC50 at 96 h [4]?
A: > 125 µM

Q: With CCOC(=O)c1cnc(N2CCN(Cc3ccc(C(=O)OC)cc3)CC2)nc1Oc1c(C)cc(-c2ccc(C#N)cc2)cc1C as the compound, how does the EC50 [1] read?
A: > 125 µM

Q: What about the EC50 [2] of the same compound?
A: > 125 µM

Q: What about the selectivity ratio [3] of the same compound?
A: 1

Q: What about the CC50 at 96 h [4] of the same compound?
A: > 125 µM

Q: Which EC50 [1] does the source give for CCOC(=O)c1cnc(N2CCN(Cc3ccc(S(N)(=O)=O)cc3)CC2)nc1Oc1c(C)cc(-c2ccc(C#N)cc2)cc1C here?
A: ≥ 24.9 µM

Q: What about the EC50 [2] of the same compound?
A: > 7.93 µM

Q: What about the solubility [5] of the same compound?
A: Insoluble

Q: And the selectivity ratio [3]?
A: 1

Q: What about the CC50 at 96 h [4] of the same compound?
A: ≥ 7.93 µM

Q: And the EC50 [6]?
A: > 7.93 µM

Q: What about the IC50 [7] of the same compound?
A: 63.5 µM

Q: Which EC50 [1] does the source give for CCOC(=O)c1cnc(N2CCN(Cc3ccccc3Br)CC2)nc1Oc1c(C)cc(-c2ccc(C#N)cc2)cc1C here?
A: > 125 µM

Q: What about the EC50 [2] of the same compound?
A: > 125 µM

Q: What about the selectivity ratio [3] of the same compound?
A: 1

Q: And the CC50 at 96 h [4]?
A: > 125 µM

Q: Which results are given for CCOC(=O)c1cnc(N2CCN(Cc3cccc(C(F)(F)F)c3)CC2)nc1Oc1c(C)cc(-c2ccc(C#N)cc2)cc1C?
A: EC50 [1]: > 125 µM; EC50 [2]: > 125 µM; selectivity ratio [3]: 1; CC50 at 96 h [4]: > 125 µM

Q: What does the source list for CCOC(=O)c1cnc(N2CCN(Cc3cccc(F)c3)CC2)nc1Oc1c(C)cc(-c2ccc(C#N)cc2)cc1C?
A: EC50 [1]: > 125 µM; EC50 [2]: > 125 µM; selectivity ratio [3]: 1; CC50 at 96 h [4]: > 125 µM

Q: With CCOC(=O)c1cnc(N2CCN(Cc3ccc(S(C)(=O)=O)cc3)CC2)nc1Oc1c(C)cc(-c2ccc(C#N)cc2)cc1C as the compound, how does the EC50 [1] read?
A: > 125 µM

Q: And the EC50 [2]?
A: > 125 µM

Q: And the selectivity ratio [3]?
A: 1

Q: What about the CC50 at 96 h [4] of the same compound?
A: > 125 µM

Q: For Cc1cc(C#N)cc(C)c1Oc1nc(Nc2ccc(C#N)cc2)nc(N)c1Br [ETRAVIRINE], which EC50 [1] is on record?
A: 0.0022 µM

Q: And the CC50 at 96 h [4]?
A: > 2 µM

Q: What about the EC50 [6] of the same compound?
A: 0.015 µM

Q: Which results are given for CCOC(=O)c1cnc(N2CCN(Cc3ccc(C#N)cc3)CC2)nc1Oc1c(C)cc(-c2ccc(C#N)cc2)cc1C?
A: EC50 [1]: > 125 µM; EC50 [2]: > 125 µM; selectivity ratio [3]: 1; CC50 at 96 h [4]: > 125 µM

Q: Which results are given for CCOC(=O)c1cnc(N2CCN(Cc3cccc(C(N)=O)c3)CC2)nc1Oc1c(C)cc(-c2ccc(C#N)cc2)cc1C?
A: EC50 [1]: 3.36 µM; EC50 [2]: > 14.8 µM; solubility [5]: Insoluble; selectivity ratio [3]: 4; CC50 at 96 h [4]: 14.8 µM; EC50 [6]: > 14.8 µM; IC50 [7]: ≥ 93.1 µM

Q: Which results are given for CCOC(=O)c1cnc(N2CCN(Cc3ccc([N+](=O)[O-])cc3)CC2)nc1Oc1c(C)cc(-c2ccc(C#N)cc2)cc1C?
A: EC50 [1]: > 125 µM; EC50 [2]: > 125 µM; selectivity ratio [3]: 1; CC50 at 96 h [4]: > 125 µM

Q: Which EC50 [1] does the source give for CCOC(=O)c1cnc(N2CCN(Cc3cccc([N+](=O)[O-])c3)CC2)nc1Oc1c(C)cc(-c2ccc(C#N)cc2)cc1C here?
A: 31.5 µM

Q: And the EC50 [2]?
A: > 125 µM

Q: What about the solubility [5] of the same compound?
A: Insoluble

Q: What about the selectivity ratio [3] of the same compound?
A: > 4

Q: What about the CC50 at 96 h [4] of the same compound?
A: > 125 µM

Q: What about the EC50 [6] of the same compound?
A: > 125 µM

Q: What about the IC50 [7] of the same compound?
A: 114 µM

Q: With CCOC(=O)c1cnc(N2CCN(Cc3ccccc3F)CC2)nc1Oc1c(C)cc(-c2ccc(C#N)cc2)cc1C as the compound, how does the EC50 [1] read?
A: > 125 µM

Q: And the EC50 [2]?
A: > 125 µM

Q: And the selectivity ratio [3]?
A: 1

Q: What about the CC50 at 96 h [4] of the same compound?
A: > 125 µM

Q: Which EC50 [1] does the source give for CCOC(=O)c1cnc(N2CCN(Cc3ccc(C(F)(F)F)cc3)CC2)nc1Oc1c(C)cc(-c2ccc(C#N)cc2)cc1C here?
A: > 125 µM

Q: And the EC50 [2]?
A: > 125 µM

Q: And the selectivity ratio [3]?
A: 1

Q: And the CC50 at 96 h [4]?
A: > 125 µM

Q: For CCOC(=O)c1cnc(N2CCN(Cc3cccc(C#N)c3)CC2)nc1Oc1c(C)cc(-c2ccc(C#N)cc2)cc1C, which EC50 [1] is on record?
A: > 125 µM

Q: What about the EC50 [2] of the same compound?
A: > 125 µM

Q: And the selectivity ratio [3]?
A: 1

Q: What about the CC50 at 96 h [4] of the same compound?
A: > 125 µM

Q: For CCOC(=O)c1ccc(CN2CCN(c3ncc(C(=O)OCC)c(Oc4c(C)cc(-c5ccc(C#N)cc5)cc4C)n3)CC2)cc1, which EC50 [1] is on record?
A: > 125 µM

Q: What about the EC50 [2] of the same compound?
A: > 125 µM

Q: What about the selectivity ratio [3] of the same compound?
A: 1

Q: What about the CC50 at 96 h [4] of the same compound?
A: > 125 µM

Q: For CCOC(=O)c1cnc(N2CCN(Cc3cccc(Br)c3)CC2)nc1Oc1c(C)cc(-c2ccc(C#N)cc2)cc1C, which EC50 [1] is on record?
A: > 125 µM

Q: And the EC50 [2]?
A: > 125 µM

Q: And the selectivity ratio [3]?
A: 1

Q: And the CC50 at 96 h [4]?
A: > 125 µM

Q: For Cc1ccnc2c1NC(=O)c1cccnc1N2C1CC1 [NEVIRAPINE], which EC50 [1] is on record?
A: 0.1 µM

Q: What about the CC50 at 96 h [4] of the same compound?
A: > 4 µM

Q: And the EC50 [6]?
A: > 4 µM

Q: For CCOC(=O)c1cnc(N2CCN(Cc3ccccc3[N+](=O)[O-])CC2)nc1Oc1c(C)cc(-c2ccc(C#N)cc2)cc1C, which EC50 [1] is on record?
A: > 78.7 µM

Q: And the EC50 [2]?
A: > 78.7 µM

Q: What about the selectivity ratio [3] of the same compound?
A: 1

Q: And the CC50 at 96 h [4]?
A: ≥ 78.7 µM

Q: What does the source list for CCOC(=O)c1cnc(N2CCN(Cc3cc(F)cc(F)c3)CC2)nc1Oc1c(C)cc(-c2ccc(C#N)cc2)cc1C?
A: EC50 [1]: > 125 µM; EC50 [2]: > 125 µM; selectivity ratio [3]: 1; CC50 at 96 h [4]: > 125 µM

Q: For CCOC(=O)c1cnc(N2CCN(Cc3ccc(Br)cc3)CC2)nc1Oc1c(C)cc(-c2ccc(C#N)cc2)cc1C, which EC50 [1] is on record?
A: > 125 µM

Q: What about the EC50 [2] of the same compound?
A: > 125 µM

Q: And the selectivity ratio [3]?
A: 1

Q: What about the CC50 at 96 h [4] of the same compound?
A: > 125 µM
